From patent publication US4416884A, “Piperazinylbenzoheterocyclic compounds” (Otsuka Pharmaceutical Co., Ltd., priority 1978, dated 1983)
Values after ≈ are worked out from the molar mass of the structure shown. Where two headings read alike, the source gives them in different places.

Experiments:
Assay in all cases: antimicrobial activity, serial dilution method on agar plate
Format in all cases: cell-based
[1] = tested on: Pseudomonas aeruginosa ATCC 10145
Experimental: (§1) The antimicrobial activity of the following test compounds on various test organisms listed below was determined by the serial dilution method on agar plate (Heart Infusion agar produced by Difco Co.) (see CHEMOTHERAPY 22, pp. 1126-1128 (1974)), and the minimum inhibitory concentrations (mcg/ml) obtained are shown in Table 1 below.
(§2) A sample of each test organism was prepared so that the population of the organism was 1×10^8 cells/ml (O.D. 660 mμ=0.07 to 0.16) and 1×10^6 cells/ml (which was obtained by diluting the above 1×10^8 cells/ml preparation).

[2] = tested on: Pseudomonas aeruginosa E-2
Experimental: as §1, §2

[3] = tested on: Pseudomonas aeruginosa NCTC 10490
Experimental: as §1, §2

[4] = tested on: Salmonella typhi 0-901 (NCTC 8393); settings: Salmonella enterica
Experimental: as §1, §2

Shigella Sonnei EW 33 = settings: read-out: Minimum Inhibitory Concentration
Experimental: as §1, §2

[5] = tested on: Staphylococcus aureus FDA 209 P
Experimental: as §1, §2

Proteus rettgeri NIH 96 = settings: Providencia rettgeri
Experimental: as §1, §2

[6] = tested on: Serattia marcescens IFO 12648
Experimental: as §1, §2

Klebsiella pneumoniae = tested on: Klebsiella pneumoniae
Experimental: as §1, §2

[7] = tested on: Escherichia Coli NIHJ JC-2 (IFO 12734); settings: for MIC: Escherichia coli, read-out: Minimum Inhibitory Concentration
Experimental: as §1, §2

[8] = tested on: Streptococcus pyogenes IID S-23
Experimental: as §1, §2

[9] = ATCC10145, inoculum 1 × 10^8 cells/ml, read-out: Minimum Inhibitory Concentration
[10] = E2, inoculum 1 × 10^8 cells/ml, read-out: Minimum Inhibitory Concentration
[11] = NCTC10490, inoculum 1 × 10^8 cells/ml, read-out: Minimum Inhibitory Concentration
[12] = read-out: Minimum Inhibitory Concentration, inoculum 1 × 10^8 cells/ml
[13] = FDA209, inoculum 1 × 10^8 cells/ml, read-out: Minimum Inhibitory Concentration
[14] = NIH96, inoculum 1 × 10^8 cells/ml, read-out: Minimum Inhibitory Concentration
[15] = inoculum 1 × 10^8 cells/ml, read-out: Minimum Inhibitory Concentration
[16] = NCTC10490, read-out: Minimum Inhibitory Concentration, inoculum 1 × 10^8 cells/ml
[17] = IIDS23, read-out: Minimum Inhibitory Concentration, inoculum 1 × 10^8 cells/ml
[18] = read-out: Minimum Inhibitory Concentration, inoculum 1 × 10^6 cells/ml

Structure (SMILES) | MIC [1, 9] [µg/mL] | MIC [2, 10] [µg/mL] | MIC [3, 11] [µg/mL] | MIC [4, 12] [µg/mL] | MIC (Shigella Sonnei EW 33; inoculum 1 × 10^8 cells/ml) [µg/mL] | MIC [5, 13] [µg/mL] | MIC (Proteus rettgeri NIH 96; [14]) [µg/mL] | MIC [6, 15] [µg/mL] | MIC (Klebsiella pneumoniae; [15]) [µg/mL] | MIC ([7]; inoculum 1 × 10^8 cells/ml) [µg/mL] | MIC [3, 16] [µg/mL] | MIC [8, 17] [µg/mL] | MIC [6, 12] [µg/mL] | also measured
O=C(O)c1cn2c3c(c(N4CCN(Cc5ccccc5)CC4)ccc3c1=O)CCC2 [Compound R, 8-(4-Benzyl-1-piperazinyl)-6,7-dihydro-1-oxo-1H,5H--benzo[ij]quinolizine-2-carboxylic acid] | 25 (≈ 62 µM) | 25 (≈ 62 µM) | 12.5 (≈ 31 µM) | 1.6 (≈ 3.97 µM) | 1.6 (≈ 3.97 µM) | 12.5 (≈ 31 µM) | 1.6 (≈ 3.97 µM) | 3.1 (≈ 7.68 µM) | 3.1 (≈ 7.68 µM) | 1.6 (≈ 3.97 µM) |  |  |  | 
O=C(O)c1cn2c3c(c(N4CCN(C(=O)c5ccccc5)CC4)ccc3c1=O)CCC2 [Compound N, 8-(4-Benzoyl-1-piperazinyl)-6,7-dihydro-1-oxo-1H,5H--benzo[ij]quinolizine-2-carboxylic acid] | 50 (≈ 120 µM) | 100 (≈ 240 µM) | 25 (≈ 59.9 µM) | 1.6 (≈ 3.83 µM) | 3.1 (≈ 7.43 µM) | 3.1 (≈ 7.43 µM) | 6.3 (≈ 15.1 µM) | 12.5 (≈ 29.9 µM) | 6.3 (≈ 15.1 µM) | 6.3 (≈ 15.1 µM) |  |  |  | 
CC1Cc2c(N3CCNCC3)c(Cl)cc3c(=O)c(C(=O)O)cn1c23 (centres unmarked) [Compound Y, 8-Chloro-9-(1-piperazinyl)-2-methyl-6-oxo-1,2-dihydro-6H--pyrrolo[3,2,1-ij]-quinoline-5-carboxylic acid] |  |  |  |  | 0.1 (≈ 0.288 µM) |  |  |  |  |  | 1.6 (≈ 4.6 µM) | 12.5 (≈ 35.9 µM) | 0.8 (≈ 2.3 µM) | MIC ([1]; ATCC10145, read-out: Minimum Inhibitory Concentration, inoculum 1 × 10^6 cells/ml): 1.6 µg/mL (≈ 4.6 µM); MIC ([1]; ATCC10145, read-out: Minimum Inhibitory Concentration, inoculum 1 × 10^8 cells/ml): 1.6 µg/mL (≈ 4.6 µM); MIC ([2]; E2, read-out: Minimum Inhibitory Concentration, inoculum 1 × 10^6 cells/ml): 3.1 µg/mL (≈ 8.91 µM); MIC ([2]; E2, read-out: Minimum Inhibitory Concentration, inoculum 1 × 10^8 cells/ml): 3.1 µg/mL (≈ 8.91 µM); MIC ([3]; NCTC10490, read-out: Minimum Inhibitory Concentration, inoculum 1 × 10^6 cells/ml): 1.6 µg/mL (≈ 4.6 µM); MIC ([4]; inoculum 1 × 10^6 cells/ml, read-out: Minimum Inhibitory Concentration): ≤ 0.05 µg/mL; MIC [4, 15]: 0.1 µg/mL (≈ 0.288 µM); MIC (Shigella Sonnei EW 33; inoculum 1 × 10^6 cells/ml): ≤ 0.05 µg/mL; MIC ([5]; FDA209, read-out: Minimum Inhibitory Concentration, inoculum 1 × 10^6 cells/ml): 3.1 µg/mL (≈ 8.91 µM); MIC ([5]; FDA209, read-out: Minimum Inhibitory Concentration, inoculum 1 × 10^8 cells/ml): 3.1 µg/mL (≈ 8.91 µM); MIC (Proteus rettgeri NIH 96; NIH96, read-out: Minimum Inhibitory Concentration, inoculum 1 × 10^6 cells/ml): 0.1 µg/mL (≈ 0.288 µM); MIC (Proteus rettgeri NIH 96; NIH96, read-out: Minimum Inhibitory Concentration, inoculum 1 × 10^8 cells/ml): 0.2 µg/mL (≈ 0.575 µM); MIC ([8]; IIDS23, read-out: Minimum Inhibitory Concentration, inoculum 1 × 10^6 cells/ml): 6.3 µg/mL (≈ 18.1 µM); MIC [6, 18]: 0.4 µg/mL (≈ 1.15 µM); MIC (Klebsiella pneumoniae; [18]): 0.2 µg/mL (≈ 0.575 µM); MIC (Klebsiella pneumoniae; [12]): 0.4 µg/mL (≈ 1.15 µM); MIC [7]: 0.2 µg/mL (≈ 0.575 µM); Minimum Inhibitory Concentration ([7]; inoculum 1 × 10^6 cells/ml): 0.2 µg/mL
CC1CCc2c(N3CCN(CC(F)(F)F)CC3)c(Cl)cc3c(=O)c(C(=O)O)cn1c23 (centres unmarked) [c] | 3.13 (≈ 7.05 µM) | 6.25 (≈ 14.1 µM) | 0.78 (≈ 1.76 µM) | 0.2 (≈ 0.451 µM) | 1.56 (≈ 3.51 µM) | 0.1 (≈ 0.225 µM) | 0.39 (≈ 0.879 µM) | 0.39 (≈ 0.879 µM) | 0.39 (≈ 0.879 µM) | 0.39 (≈ 0.879 µM) |  | 1.56 (≈ 3.51 µM) |  | 
O=CN1CCN(c2ccc3c(=O)c(C(=O)O)cn4c3c2CCC4)CC1 [Compound M, 8-(4-Formyl-1-piperazinyl)-6,7-dihydro-1-oxo-1H,5H--benzo[ij]quinolizine-2-carboxylic acid] | 25 (≈ 73.2 µM) | 25 (≈ 73.2 µM) | 12.5 (≈ 36.6 µM) | 0.8 (≈ 2.34 µM) | 1.6 (≈ 4.69 µM) | 3.1 (≈ 9.08 µM) | 1.6 (≈ 4.69 µM) | 3.1 (≈ 9.08 µM) | 3.1 (≈ 9.08 µM) | 1.6 (≈ 4.69 µM) |  |  |  | 
CC1CCc2c(N3CCN(C(=O)C(F)(F)F)CC3)c(Cl)cc3c(=O)c(C(=O)O)cn1c23 (centres unmarked) [b] | 3.13 (≈ 6.84 µM) | 3.13 (≈ 6.84 µM) |  | 0.39 (≈ 0.852 µM) | 1.56 (≈ 3.41 µM) | 3.13 (≈ 6.84 µM) | 0.2 (≈ 0.437 µM) |  | 0.39 (≈ 0.852 µM) | 0.39 (≈ 0.852 µM) | 1.56 (≈ 3.41 µM) |  | 1.56 (≈ 3.41 µM) | MIC ([8]; IIDS23, inoculum 1 × 10^8 cells/ml, read-out: Minimum Inhibitory Concentration): 6.25 µg/mL (≈ 13.7 µM)
